Tested on: IL-1β release from THP-1 cells
Assay: IL-1β release assay
Type: cell-based
Conditions: Homo sapiens; PMA-treated THP-1 cells, 250 ng/mL LPS then 20 μM nigericin; cleaved IL-1β in media
Procedure: Approximately 1.5 million THP-1 cells were plated in each well of a 6-well TC plate and incubated with 40 nM PMA in RPMI (10% FBS, 1% Penstrep) for 24 hours. The media was then removed and cells were rested in RPMI (10% FBS, 1% Penstrep) for 24 hours after which time the media was removed and cells were pre-treated for 2 hours with various concentrations of compounds of interest (typically serial 3-fold dilution in RPMI+5% FBS, concentrations ranging from 1 μM to 0.5 nM) in RPMI (5% FBS). The media was again removed and cells were incubated with 250 ng/mL LPS and compounds of interest (concentrations as above) in RMPI (5% FBS) for 2 hours. The media was removed for a last time and cells were incubated with 20 μM nigericin and compounds of interest (concentrations as above) in Opti-MEM for 30 minutes. Cell media was then collected and the amount of cleaved IL-1β was determined using a JESS instrument (Protein Simple) and standard protocols. Cleaved Il-1β antibody was obtained from Cell Signaling (catalogue #83186S) and was used at 1:20 dilution in antibody diluent 2. Protein Simple 1× anti-Rabbit HRP secondary antibody was used along with Protein Simple luminol and peroxide for chemiluminescent detection. Primary antibody incubation time was increased from 30 minutes to 60 minutes.

Work on `O=C(Nc1ccc(Oc2ccnc3[nH]cc(Cl)c23)cc1F)Nc1cc(C2CC2)nn1-c1ccccc1` [Compound I-11, 1-(4-((3-chloro-1H-pyrrolo[2,3-b]pyridin-4-yl)oxy)-2-fluorophenyl)-3-(3-cyclopropyl-1-phenyl-1H-pyrazol-5-yl)urea] yielded an IC50 of over 1 µM.

Source: US20240400551A1, “NEK7 INHIBITORS” (HALIA THERAPEUTICS, INC., priority 2021, published 2024)
